{"source": "patent US20080003606A1", "about": "“DIAGNOSIS OF TAMOXIFEN SENSITIVITY” (priority 2004, published 2008)", "system": "ER positive invasive breast cancer", "experiment": "Randomized trial of 2 years of adjuvant tamoxifen vs no adjuvant treatment, survival analysed by cyclin D1/A2 expression and CCND1 amplification", "assay_type": "in vivo, human", "conditions": "for Overall Survival RR / Recurrence Free Survival RR: Cox univariate, ER+, tamoxifen vs control (1.00)", "experimental": "During 1984-1991, 564 premenopausal patients or patients under 50 years with stage 11 (pT2 N0 M0, pT1 N1 M0 and pT2, N1 M0) invasive breast cancer were enrolled in a randomized trial of 2 years of adjuvant tamoxifen treatment with a daily dosage of either 40 mg (study center 1) or 20 mg (study center 2) or no adjuvant treatment (detailed in [14]).\nAll available archived primary tumor specimens were collected (n=500). Areas with invasive cancer were marked on the H&E stained slides and two 0.6 mm tissue cores were taken from each donor block and mounted in a recipient block using an automated arrayer ((ATA-27, Beecher Inc, WI, USA).\nFor cyclin A2 expression, only the fraction of positively staining nuclei were calculated (405 cases) and subdivided into five groups based on the following score: 0 (0-1%), 1 (2-10%), 2 (11-25%), 3 (26-50%) and 4 (>50%). For cyclin D1, the nuclear fraction and intensity as well as the cytoplasmic staining intensity was evaluated (463 cases). The nuclear fractions were divided into the following five subgroups: 0 (0%), 1 (1-25%), 2 (26-50%), 3 (51-75%) and 4 (>75%). The nuclear and cytoplasmic intensity was evaluated as absent=0, weak=1, intermediate=2 and strong=3. The TMA:s had previously been analyzed immunohistochemically for estrogen- (ER) and progesterone (PR) receptor status (anti-ER Clone 6F11 and anti-PgR Clone 16) using the Ventana Benchmark system (Ventana Medical Systems Inc., AZ, USA). In line with the clinically established cut-off used for hormone receptor assessment, tumors with more than 10% positively staining nuclei were considered positive.\nFor fluorescence in situ (FISH) analysis of CCND1 gene amplification, two direct-labeled probes were used, LSI cyclin D1 (11q13) SpectrumOrange against CCND1 (11q13) and CEP 11 SpectrumGreen (Vysis Inc., Illinois, USA) against the centromere of chromosome 11. The FISH analysis was performed according to the standard protocol recommended by the manufacturer and according to “LSI® Locus Specific Identifier DNA probes” from Vysis Inc., Illinois. Briefly, tissue sections were de-paraffinized in xylene and alcohol and air-dried. The slides were then microwave-treated in Target Retrieval Solution pH 7.3 (DAKO A/S, Glostrup, Denmark) for 5+5 minutes and treated with 100 μl pepsin (Digest-All 3, Zymed, California, USA) for 8 minutes in 37° C. and washed in water. The de-paraffinized slides were denatured in 70% formamide/2×SSC at 73° C. for 5 minutes followed by dehydration in graded ethanol. A denatured mixture of 1 μl LSI probe, 2 μl pH2O and 7 μl LSI hybridization buffer was added on each slide and incubated at 37° C. overnight. The slides were then washed with 0.4×SSC/0.3% Nonidet P40 at 37±1° C. for 2 minutes followed by a 2×SSC/0.1% NP40 wash at ambient temperature for 1 minute to remove non-specifically bound probe.\nFor evaluation, the CCND1 gene was considered amplified when the ratio of orange/green was >1. Non-amplified cases were classified as 0, cases with up to 10 copies as 1 and >10 copies as 2.\nBaseline prognostic and patient characteristics between the original study group, patients with available FISH data (n=280) and patients without FISH data (n=284) were compared using the chi-square test to exclude the possibility of selection bias. Baseline prognostic and patients characteristics were also compared between amplified and non-amplified cases using the same approach as well as the marker distribution according to trial arm. For evaluation of treatment response, only tumors with >10% ER positivity were included. Kaplan-Meier and log-rank tests and univariate Cox regression analyses were used for recurrence free survival (RFS), breast cancer survival (BCS) and overall survival (OS).", "key": {"[1]": {"conditions": "Multivariate Cox model with A2 NF and interaction variable, adjusted for age, tumor size, NHG, Ki-67 and nodal status"}, "[2]": {"conditions": "Multivariate Cox model with CCND1 amplification and interaction variable, adjusted for age, tumor size, NHG, Ki-67 and nodal status"}, "[3]": {"conditions": "Multivariate Cox model with D1 NF and interaction variable, adjusted for age, tumor size, NHG, Ki-67 and nodal status"}, "[4]": {"conditions": "Multivariate Cox model with D1 NI and interaction variable, adjusted for age, tumor size, NHG, Ki-67 and nodal status"}, "[5]": {"conditions": "Multivariate Cox model, adjusted for age, tumor size, NHG, Ki-67 and nodal status"}}, "data": [{"smiles": "CC/C(=C(\\c1ccccc1)c1ccc(OCCN(C)C)cc1)c1ccccc1", "note": "[tamoxifen]", "values": [{"measurement": "tamoxifen effect", "setting": "CCND1-amplified tumors without high cyclin D1 protein intensity or >50% cyclin D1 positive cells", "value": "clear adverse tamoxifen effect"}, {"measurement": "Overall Survival RR", "setting": "CCND1 amplified", "value": 2.13}, {"measurement": "Recurrence Free Survival RR", "setting": "CCND1 amplified", "value": 2.22}, {"measurement": "Overall Survival RR", "setting": "CCND1 not amplified", "value": 0.43}, {"measurement": "Recurrence Free Survival RR", "setting": "CCND1 not amplified", "value": 0.39}, {"measurement": "Overall Survival RR", "setting": "Cyclin A2 nf <10%", "value": 0.72}, {"measurement": "Recurrence Free Survival RR", "setting": "Cyclin A2 nf <10%", "value": 0.51}, {"measurement": "Overall Survival RR", "setting": "Cyclin A2 nf >10%", "value": 0.92}, {"measurement": "Recurrence Free Survival RR", "setting": "Cyclin A2 nf >10%", "value": 0.86}, {"measurement": "Overall Survival RR", "setting": "Cyclin D1 nf <25%", "value": 0.65}, {"measurement": "Recurrence Free Survival RR", "setting": "Cyclin D1 nf <25%", "value": 0.62}, {"measurement": "Overall Survival RR", "setting": "Cyclin D1 nf >25%", "value": 0.78}, {"measurement": "Recurrence Free Survival RR", "setting": "Cyclin D1 nf >25%", "value": 0.61}, {"measurement": "Overall Survival RR", "setting": "Cyclin D1 ni high", "value": 0.77}, {"measurement": "Recurrence Free Survival RR", "setting": "Cyclin D1 ni high", "value": 0.84}, {"measurement": "Overall Survival RR", "setting": "Cyclin D1 ni low/intermediate", "value": 0.72}, {"measurement": "Recurrence Free Survival RR", "setting": "Cyclin D1 ni low/intermediate", "value": 0.59}, {"measurement": "Overall survival RR, Treatment tamoxifen vs control", "setting": "[1]", "value": 0.64}, {"measurement": "Recurrence free survival RR, Treatment tamoxifen vs control", "setting": "[1]", "value": 0.46}, {"measurement": "Overall survival RR, Treatment tamoxifen vs control", "setting": "[2]", "value": 0.41}, {"measurement": "Recurrence free survival RR, Treatment tamoxifen vs control", "setting": "[2]", "value": 0.37}, {"measurement": "Overall survival RR, Treatment tamoxifen vs control", "setting": "[3]", "value": 0.67}, {"measurement": "Recurrence free survival RR, Treatment tamoxifen vs control", "setting": "[3]", "value": 0.62}, {"measurement": "Overall survival RR, Treatment tamoxifen vs control", "setting": "[4]", "value": 0.78}, {"measurement": "Recurrence free survival RR, Treatment tamoxifen vs control", "setting": "[4]", "value": 0.62}, {"measurement": "Overall survival RR, Interaction variable tamoxifen × A2 nf", "setting": "[5]", "value": 1.40}, {"measurement": "Overall survival RR, Interaction variable tamoxifen × CCND1", "setting": "[5]", "value": 5.85}, {"measurement": "Overall survival RR, Interaction variable tamoxifen × D1 nf", "setting": "[5]", "value": 1.29}, {"measurement": "Overall survival RR, Interaction variable tamoxifen × D1 ni", "setting": "[5]", "value": 1.00}, {"measurement": "Recurrence free survival RR, Interaction variable tamoxifen × A2 nf", "setting": "[5]", "value": 1.93}, {"measurement": "Recurrence free survival RR, Interaction variable tamoxifen × CCND1", "setting": "[5]", "value": 6.26}, {"measurement": "Recurrence free survival RR, Interaction variable tamoxifen × D1 nf", "setting": "[5]", "value": 0.98}, {"measurement": "Recurrence free survival RR, Interaction variable tamoxifen × D1 ni", "setting": "[5]", "value": 1.27}, {"measurement": "difference in treatment response, multivariate interaction variable", "setting": "node positive patients, CCND1-amplified tumors", "value": "more then nine-fold"}, {"measurement": "10 year RFS", "setting": "node positive patients, amplified tumors, treated arm (untreated 68%)", "value": 13, "unit": "%"}, {"measurement": "difference in tamoxifen treatment effect", "setting": "patients with CCND1-amplified tumors, multivariate interaction analyses", "value": "6-9 fold"}, {"measurement": "10 years RFS", "setting": "patients with amplified tumors, tamoxifen treated arm (untreated 62%)", "value": 29, "unit": "%"}, {"measurement": "10 years OS", "setting": "patients with amplified tumors, tamoxifen treated arm (untreated 74%)", "value": 56, "unit": "%"}, {"measurement": "proportional 10-year recurrence free survival (RFS)", "setting": "patients with non-amplified tumors, treatment arm (control 44%)", "value": 74, "unit": "%"}, {"measurement": "10-year overall survival (OS)", "setting": "patients with non-amplified tumors, treatment arm (control 61%)", "value": 78, "unit": "%"}, {"measurement": "tamoxifen response", "setting": "tumors with >10% positive cyclin A2 nuclei", "value": "lack of response"}, {"measurement": "tamoxifen response", "setting": "tumors with less than 10% positive cyclin A2 nuclei", "value": "responded well"}, {"measurement": "tamoxifen response regarding recurrence free survival (RFS)", "setting": "tumors with strong nuclear cyclin D1 staining intensity", "value": "did not respond"}]}]}
